IC50 data for two compounds are collected here from US6949516B2, “Dipeptide apoptosis inhibitors and the use thereof” (Cytovia, Inc., priority 1997, dated 2005).

Holding throughout (type): biochemical
The target of experiment [1] is T1, CPP32 (Homo sapiens, UniProt P42574).
T1 construct: made in house; host or cells: Sf9 insect cells, baculovirus vector
T1 sequence (P42574 29-175 limits assumed): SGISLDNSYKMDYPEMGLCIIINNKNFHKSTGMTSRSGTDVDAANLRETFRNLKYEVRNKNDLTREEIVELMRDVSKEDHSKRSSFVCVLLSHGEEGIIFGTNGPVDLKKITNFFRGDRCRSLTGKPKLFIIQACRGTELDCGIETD
In words: Fluorometric enzyme assay, CPP32. The conditions noted are these: recombinant CPP32, 37° C., 30 minutes. The method, then: (§1) The activities of Cbz-Val-Asp(OMe)-CH2F and Cbz-Val-Asp-CH2F (free acid) as inhibitors of CPP32, ICE and cathepsin B were measured in a fluorometric enzyme assay. Recombinant CPP32 protein and ICE protein were prepared by expressing DNA clones encoding these enzymes in an insect host cell (sf9 cells) using baculovirus as the vector. See, Webb, N.R. et al., “Expression of proteins using recombinant Baculovirus,” Techniques 2:173-188 (1990). Preparations of native cathepsin were acquired from a commercial source. Enzyme activity was measured using synthetic peptide substrates attached to a fluorogenic leaving group. Cleavage of the synthetic substrate by the enzyme results in a fluorescent signal which is read in a spectrofluorometer or in a fluorometric microtiter plate reader.
CPP32 activity was measured using the following buffer conditions: 100 mM HEPES pH 7.5, with 10% sucrose, 1% CHAPS, 5 mM glutathione, and 5 μM peptide substrate. The peptide substrate consisted of an oligomer with the sequence Asp-Glu-Val-Asp (SEQ ID NO:1) with the fluorogenic compound aminomethylcoumarin conjugated to the C-terminus. The assay for enzyme activity was typically carried out at 37° C. for 30 minutes.

Experiment [2] has as its target T2, ICE (Homo sapiens, UniProt P29466).
T2 construct: made in house; host or cells: Sf9 insect cells, baculovirus vector
T2 sequence (P29466 120-297 limits assumed): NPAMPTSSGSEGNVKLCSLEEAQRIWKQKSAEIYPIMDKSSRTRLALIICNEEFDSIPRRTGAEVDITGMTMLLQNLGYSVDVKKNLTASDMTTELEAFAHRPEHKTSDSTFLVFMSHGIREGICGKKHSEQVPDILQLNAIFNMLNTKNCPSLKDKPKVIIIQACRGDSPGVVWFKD
In words: Fluorometric enzyme assay, ICE. The conditions noted are these: recombinant ICE. The protocol:
as §1

For experiment [3], the target named is T3, Cathepsin B (Homo sapiens, UniProt P07858).
T3 construct: Preparations of native cathepsin were acquired from a commercial source; purchased
In words: Fluorometric enzyme assay, cathepsin B. The settings on record: native cathepsin, commercial source. The method, then:
as §1

The test system of experiment [4] is Factor Xa. In words: Protease inhibition, Factor Xa. From the text: (§2) Table I lists the IC50 of Cbz-Val-Asp(OMe)-CH2F and Cbz-Val-Asp-CH2F (free acid) for CPP32 and other proteases.
In experiment [5] the target is Thrombin (Homo sapiens, UniProt P00734). In words: Protease inhibition, thrombin.
Text: as §2

Experiment [6] addresses T4, Caspase-7 (Homo sapiens, UniProt P55210).
T4 construct: purchased PharMington (PharMingen, a Becton division company, San Diego, Calif.)
T4 sequence (P55210 24-198 limits assumed): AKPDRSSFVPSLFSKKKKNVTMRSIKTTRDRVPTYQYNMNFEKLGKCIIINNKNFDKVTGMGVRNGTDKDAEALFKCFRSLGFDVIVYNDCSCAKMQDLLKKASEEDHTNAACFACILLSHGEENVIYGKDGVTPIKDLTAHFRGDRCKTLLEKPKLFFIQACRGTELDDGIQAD
In words: Recombinant caspase assay with Ac-DEVD-AMC, caspase-7. The settings on record: 10 μM Ac-DEVD-AMC, 30 minutes at 37° C. The protocol: (§3) The inhibitory activity of Cbz-Val-Asp-CH2F in recombinant caspase 3, 6, 7 and 8 obtained from PharMington (a Becton division company, San Diego, Calif.) were measured using Ac-DEVD-AMC (SEQ ID NO:1). The amount of each enzyme per assay was as following: 1 ng caspase3, 15 ng caspase6, 2 ng caspase7 and 60 ng caspase8. The enzyme reaction was conducted in 96-well plate using a caspase buffer (20 mM PIPES, 100 mM NaCl, 10 mM DTT, 1 mM EDTA, 0.1% CHAPS and 10% sucrose, pH 7.2) and the reaction was initiated by adding 10 μM Ac-DEVD-AMC (SEQ ID NO:1) (purchased from Quality Controlled Biochemicals, Inc. Hopkinton, Mass.). Twelve concentrations of Cbz-Val-Asp-CH2F ranged from 30 μM to […] were tested after incubation of the compound with recombinant caspases for 30 minutes at 37° C. […] The data was analyzed using GraphPrism software.

Experiment [7] concerns the target T5, Caspase-8 (Homo sapiens, UniProt Q14790).
T5 construct: purchased PharMington (PharMingen, a Becton division company, San Diego, Calif.)
In words: Recombinant caspase assay with Ac-DEVD-AMC, caspase-8. The settings on record: 10 μM Ac-DEVD-AMC, 30 minutes at 37° C. The method, then: as §3

T5 sequence (Q14790 217-374 limits assumed): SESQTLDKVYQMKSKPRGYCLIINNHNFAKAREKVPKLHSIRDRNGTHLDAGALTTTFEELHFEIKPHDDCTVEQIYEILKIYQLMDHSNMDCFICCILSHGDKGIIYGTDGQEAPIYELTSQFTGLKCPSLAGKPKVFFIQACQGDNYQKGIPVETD

What is called IC50 is the concentration that gives 50% inhibition. `COC(=O)CC(NC(=O)C(NC(=O)OCc1ccccc1)C(C)C)C(=O)CF` (stereo not drawn) [Cbz-Val-Asp(OMe)-CH2F, Z-Val-Asp-fmk Methyl Ester]: the IC50 was 1100 nM in experiment [1]; 900 nM in experiment [2]; 300 nM in experiment [3]; over 100000 nM in experiment [4]; over 100000 nM in experiment [5].

As for `CC(C)[C@H](NC(=O)OCc1ccccc1)C(=O)NC(CC(=O)O)C(=O)CF` (stereo partly drawn) [Cbz-Val-Asp-CH2F, Z-Val-Asp-fmk], the half-maximal inhibitory concentration (IC50) in experiment [1] is 43 nM; in experiment [2], 20 nM; in experiment [3] it was over 10000 nM; in experiment [4] it was over 100000 nM; in experiment [5], over 100000 nM; in experiment [6], 6.8 nM. In addition, the concentration for half-maximal inhibition (IC50) in experiment [7] was 7.2 nM.
